What was measured:
Assay in all cases: biochemical
[1] = target: T1, 371 kinases (kinase named in each endpoint) (Homo sapiens, UniProt O15111); conditions: IKKA/CHUK
T1 construct: purchased Reaction Biology

[2] = target: T2, 371 kinases (kinase named in each endpoint) (Homo sapiens, UniProt Q96S53); conditions: TESK2
T2 construct: purchased Reaction Biology

[3] = target: T3, 371 kinases (kinase named in each endpoint) (Homo sapiens, UniProt Q9P286); conditions: PAK5
T3 construct: purchased Reaction Biology

[4] = target: T4, 371 kinases (kinase named in each endpoint) (Homo sapiens, UniProt Q05655); conditions: PKCD
T4 construct: purchased Reaction Biology
T4 sequence (Q05655 whole entry): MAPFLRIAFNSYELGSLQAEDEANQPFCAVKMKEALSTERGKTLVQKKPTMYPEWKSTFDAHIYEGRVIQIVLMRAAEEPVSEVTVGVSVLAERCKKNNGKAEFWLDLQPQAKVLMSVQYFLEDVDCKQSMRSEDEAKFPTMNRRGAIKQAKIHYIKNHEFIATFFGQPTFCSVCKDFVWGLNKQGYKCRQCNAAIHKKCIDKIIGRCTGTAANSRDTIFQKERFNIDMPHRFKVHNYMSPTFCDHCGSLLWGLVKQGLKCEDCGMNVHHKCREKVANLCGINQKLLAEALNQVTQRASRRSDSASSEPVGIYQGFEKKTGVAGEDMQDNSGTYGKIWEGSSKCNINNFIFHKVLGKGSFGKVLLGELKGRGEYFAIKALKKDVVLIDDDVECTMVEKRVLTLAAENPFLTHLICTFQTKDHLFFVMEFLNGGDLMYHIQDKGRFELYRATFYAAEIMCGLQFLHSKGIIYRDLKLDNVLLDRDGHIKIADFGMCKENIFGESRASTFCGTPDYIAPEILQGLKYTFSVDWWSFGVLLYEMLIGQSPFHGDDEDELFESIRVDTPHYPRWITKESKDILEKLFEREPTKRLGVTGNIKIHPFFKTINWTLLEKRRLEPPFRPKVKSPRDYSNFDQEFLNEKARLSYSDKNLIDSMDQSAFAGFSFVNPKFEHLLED

[5] = target: T5, 371 kinases (kinase named in each endpoint) (Homo sapiens, UniProt P41743); conditions: PKCIOTA
T5 construct: purchased Reaction Biology

[6] = target: T6, 371 kinases (kinase named in each endpoint) (Homo sapiens, UniProt P35916); conditions: FLT4/VEGFR3
T6 construct: purchased Reaction Biology

[7] = target: T7, 371 kinases (kinase named in each endpoint) (Homo sapiens, UniProt Q9H093); conditions: SNARK/NUAK2
T7 construct: purchased Reaction Biology

[8] = target: T8, 371 kinases (kinase named in each endpoint) (Homo sapiens, UniProt P15735); conditions: PHKG2
T8 construct: purchased Reaction Biology

[9] = target: T9, 371 kinases (kinase named in each endpoint) (Homo sapiens, UniProt Q9UK32); conditions: RSK4
T9 construct: purchased Reaction Biology

[10] = target: T10, 371 kinases (kinase named in each endpoint) (Homo sapiens, UniProt P49760); conditions: CLK2
T10 construct: purchased Reaction Biology

[11] = target: T11, 371 kinases (kinase named in each endpoint) (Homo sapiens, UniProt Q6PHR2); conditions: ULK3
T11 construct: purchased Reaction Biology

[12] = target: T12, 371 kinases (kinase named in each endpoint) (Homo sapiens, UniProt Q86UX6); conditions: STK32C/YANK3
T12 construct: purchased Reaction Biology

[13] = target: T13, 371 kinases (kinase named in each endpoint) (Homo sapiens, UniProt P34947); conditions: GRK5
T13 construct: purchased Reaction Biology

[14] = target: T14, 371 kinases (kinase named in each endpoint) (Homo sapiens, UniProt O95747); conditions: OSR1/OXSR1
T14 construct: purchased Reaction Biology

[15] = target: T15, 371 kinases (kinase named in each endpoint) (Homo sapiens, UniProt Q9UQM7); conditions: CAMK2A
T15 construct: purchased Reaction Biology

[16] = target: T16, 371 kinases (kinase named in each endpoint) (Homo sapiens, UniProt Q08345); conditions: DDR1
T16 construct: purchased Reaction Biology

[17] = target: T17, 371 kinases (kinase named in each endpoint) (Homo sapiens, UniProt P51813); conditions: BMX/ETK
T17 construct: purchased Reaction Biology

[18] = target: T18, 371 kinases (kinase named in each endpoint) (Homo sapiens, UniProt P16234); conditions: PDGFRA
T18 construct: purchased Reaction Biology

[19] = target: T19, 371 kinases (kinase named in each endpoint) (Homo sapiens, UniProt Q9H422); conditions: HIPK3
T19 construct: purchased Reaction Biology

[20] = target: T20, 371 kinases (kinase named in each endpoint) (Homo sapiens, UniProt Q5S007); conditions: LRRK2
T20 construct: purchased Reaction Biology

[21] = target: T21, 371 kinases (kinase named in each endpoint) (Homo sapiens, UniProt P05129); conditions: PKCG
T21 construct: purchased Reaction Biology

[22] = target: T22, 371 kinases (kinase named in each endpoint) (Homo sapiens, UniProt P04629); conditions: TRKA
T22 construct: purchased Reaction Biology

[23] = target: T23, 371 kinases (kinase named in each endpoint) (Homo sapiens, UniProt Q9UPZ9); conditions: LCK2/ICK
T23 construct: purchased Reaction Biology
T23 sequence (Q9UPZ9 whole entry): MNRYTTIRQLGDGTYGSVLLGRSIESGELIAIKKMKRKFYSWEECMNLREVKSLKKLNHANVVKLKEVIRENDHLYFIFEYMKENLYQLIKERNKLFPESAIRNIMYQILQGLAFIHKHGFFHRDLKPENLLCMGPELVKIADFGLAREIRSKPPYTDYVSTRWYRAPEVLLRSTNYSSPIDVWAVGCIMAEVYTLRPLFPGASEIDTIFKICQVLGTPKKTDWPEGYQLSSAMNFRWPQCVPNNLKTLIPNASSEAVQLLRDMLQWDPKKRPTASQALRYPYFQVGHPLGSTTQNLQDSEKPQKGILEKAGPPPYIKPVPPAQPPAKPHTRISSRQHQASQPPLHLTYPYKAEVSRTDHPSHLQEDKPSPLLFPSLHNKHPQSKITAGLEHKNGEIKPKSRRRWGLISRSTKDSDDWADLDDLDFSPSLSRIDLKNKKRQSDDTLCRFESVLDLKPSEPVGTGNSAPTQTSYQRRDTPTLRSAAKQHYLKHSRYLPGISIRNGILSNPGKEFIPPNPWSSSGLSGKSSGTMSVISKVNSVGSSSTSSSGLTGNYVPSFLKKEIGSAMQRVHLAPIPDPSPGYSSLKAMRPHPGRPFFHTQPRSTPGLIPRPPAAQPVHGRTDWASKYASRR

[24] = target: T24, 371 kinases (kinase named in each endpoint) (Homo sapiens, UniProt Q99986); conditions: VRK1
T24 construct: purchased Reaction Biology

[25] = target: T25, 371 kinases (kinase named in each endpoint) (Homo sapiens, UniProt P80192); conditions: MLK1/MAP3K9
T25 construct: purchased Reaction Biology

[26] = target: T26, 371 kinases (kinase named in each endpoint) (Homo sapiens, UniProt Q9Y3S1); conditions: WNK2
T26 construct: purchased Reaction Biology

[27] = target: T27, 371 kinases (kinase named in each endpoint) (Homo sapiens, UniProt P52333); conditions: JAK3
T27 construct: purchased Reaction Biology
T27 sequence (P52333 whole entry): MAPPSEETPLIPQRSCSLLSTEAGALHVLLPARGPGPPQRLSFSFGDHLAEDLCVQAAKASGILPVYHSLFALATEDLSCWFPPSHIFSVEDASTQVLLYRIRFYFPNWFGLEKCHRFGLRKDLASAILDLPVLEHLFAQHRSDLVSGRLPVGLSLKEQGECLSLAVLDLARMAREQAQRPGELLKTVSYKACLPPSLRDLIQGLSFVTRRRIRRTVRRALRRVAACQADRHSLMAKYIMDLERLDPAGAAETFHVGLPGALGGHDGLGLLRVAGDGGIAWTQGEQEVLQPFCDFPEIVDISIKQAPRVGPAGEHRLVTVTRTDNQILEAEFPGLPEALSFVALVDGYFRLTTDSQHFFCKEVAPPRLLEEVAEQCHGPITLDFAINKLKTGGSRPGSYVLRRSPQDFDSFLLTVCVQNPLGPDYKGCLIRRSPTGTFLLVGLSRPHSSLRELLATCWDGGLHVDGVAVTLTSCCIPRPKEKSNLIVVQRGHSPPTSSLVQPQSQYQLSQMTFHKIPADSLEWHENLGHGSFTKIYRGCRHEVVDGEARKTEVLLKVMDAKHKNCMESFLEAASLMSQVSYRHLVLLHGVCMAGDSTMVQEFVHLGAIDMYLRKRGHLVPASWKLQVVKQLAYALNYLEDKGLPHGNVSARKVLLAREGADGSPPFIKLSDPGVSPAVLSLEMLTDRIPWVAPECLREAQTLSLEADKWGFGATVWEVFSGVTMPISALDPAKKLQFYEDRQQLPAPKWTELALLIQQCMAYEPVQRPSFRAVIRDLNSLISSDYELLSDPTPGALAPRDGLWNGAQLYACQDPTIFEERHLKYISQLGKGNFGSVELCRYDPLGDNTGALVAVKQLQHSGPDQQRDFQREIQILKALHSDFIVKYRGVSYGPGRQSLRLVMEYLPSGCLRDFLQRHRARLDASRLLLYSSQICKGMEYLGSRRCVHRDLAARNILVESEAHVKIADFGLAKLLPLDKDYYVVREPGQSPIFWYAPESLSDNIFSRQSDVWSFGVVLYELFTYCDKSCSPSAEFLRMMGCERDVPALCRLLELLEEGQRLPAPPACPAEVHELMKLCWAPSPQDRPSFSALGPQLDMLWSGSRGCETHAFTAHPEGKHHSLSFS

[28] = target: T28, 371 kinases (kinase named in each endpoint) (Homo sapiens, UniProt P36897); conditions: ALK5/TGFBR1
T28 construct: purchased Reaction Biology

[29] = target: T29, 371 kinases (kinase named in each endpoint) (Homo sapiens, UniProt Q14289); conditions: PYK2
T29 construct: purchased Reaction Biology

[30] = target: T30, 371 kinases (kinase named in each endpoint) (Homo sapiens, UniProt P45983); conditions: JNK1
T30 construct: purchased Reaction Biology
T30 sequence (P45983 whole entry): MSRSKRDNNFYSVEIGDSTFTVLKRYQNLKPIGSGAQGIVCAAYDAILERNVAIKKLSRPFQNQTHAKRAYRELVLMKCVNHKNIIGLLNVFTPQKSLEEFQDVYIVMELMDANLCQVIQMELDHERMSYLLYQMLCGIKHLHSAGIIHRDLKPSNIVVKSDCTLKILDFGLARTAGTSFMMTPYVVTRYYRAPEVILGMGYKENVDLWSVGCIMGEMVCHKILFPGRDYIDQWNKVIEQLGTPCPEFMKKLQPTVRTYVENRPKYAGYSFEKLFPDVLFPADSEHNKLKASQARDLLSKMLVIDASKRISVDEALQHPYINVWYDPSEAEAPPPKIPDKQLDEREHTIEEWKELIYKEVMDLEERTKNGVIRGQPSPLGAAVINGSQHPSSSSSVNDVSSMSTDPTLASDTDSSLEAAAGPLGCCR

[31] = target: T31, 371 kinases (kinase named in each endpoint) (Homo sapiens, UniProt Q9UBS0); conditions: P70S6KB/RPS6KB2
T31 construct: purchased Reaction Biology

[32] = target: T32, 371 kinases (kinase named in each endpoint) (Homo sapiens, UniProt Q15569); conditions: TESK1
T32 construct: purchased Reaction Biology
T32 sequence (Q15569 whole entry): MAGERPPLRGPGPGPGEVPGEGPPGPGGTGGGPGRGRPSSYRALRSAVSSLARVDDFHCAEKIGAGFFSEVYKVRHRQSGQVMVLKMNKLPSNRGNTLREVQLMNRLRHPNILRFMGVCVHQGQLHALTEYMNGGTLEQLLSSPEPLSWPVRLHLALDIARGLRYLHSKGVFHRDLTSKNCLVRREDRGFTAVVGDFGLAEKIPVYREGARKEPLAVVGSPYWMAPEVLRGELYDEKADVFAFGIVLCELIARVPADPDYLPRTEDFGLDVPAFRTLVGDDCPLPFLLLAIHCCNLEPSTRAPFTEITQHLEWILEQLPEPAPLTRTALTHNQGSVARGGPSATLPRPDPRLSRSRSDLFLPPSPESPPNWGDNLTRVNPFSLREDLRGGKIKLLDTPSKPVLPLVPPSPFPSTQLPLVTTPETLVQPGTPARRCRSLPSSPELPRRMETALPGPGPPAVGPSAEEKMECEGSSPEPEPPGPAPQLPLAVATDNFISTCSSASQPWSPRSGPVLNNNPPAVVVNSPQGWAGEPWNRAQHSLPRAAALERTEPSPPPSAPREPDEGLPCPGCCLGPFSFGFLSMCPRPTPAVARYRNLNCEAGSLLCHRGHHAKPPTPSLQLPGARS

[33] = target: T33, 371 kinases (kinase named in each endpoint) (Homo sapiens, UniProt Q8N4C8); conditions: MINK/MINK1
T33 construct: purchased Reaction Biology

[34] = target: T34, 371 kinases (kinase named in each endpoint) (Homo sapiens, UniProt Q15375); conditions: EPHA7
T34 construct: purchased Reaction Biology

[35] = target: T35, 371 kinases (kinase named in each endpoint) (Homo sapiens, UniProt O75385); conditions: ULK1
T35 construct: purchased Reaction Biology

[36] = target: T36, 371 kinases (kinase named in each endpoint) (Homo sapiens, UniProt Q96GD4); conditions: AURORA B
T36 construct: purchased Reaction Biology

[37] = target: T37, 371 kinases (kinase named in each endpoint) (Homo sapiens, UniProt P42680); conditions: TEC
T37 construct: purchased Reaction Biology
T37 sequence (P42680 whole entry): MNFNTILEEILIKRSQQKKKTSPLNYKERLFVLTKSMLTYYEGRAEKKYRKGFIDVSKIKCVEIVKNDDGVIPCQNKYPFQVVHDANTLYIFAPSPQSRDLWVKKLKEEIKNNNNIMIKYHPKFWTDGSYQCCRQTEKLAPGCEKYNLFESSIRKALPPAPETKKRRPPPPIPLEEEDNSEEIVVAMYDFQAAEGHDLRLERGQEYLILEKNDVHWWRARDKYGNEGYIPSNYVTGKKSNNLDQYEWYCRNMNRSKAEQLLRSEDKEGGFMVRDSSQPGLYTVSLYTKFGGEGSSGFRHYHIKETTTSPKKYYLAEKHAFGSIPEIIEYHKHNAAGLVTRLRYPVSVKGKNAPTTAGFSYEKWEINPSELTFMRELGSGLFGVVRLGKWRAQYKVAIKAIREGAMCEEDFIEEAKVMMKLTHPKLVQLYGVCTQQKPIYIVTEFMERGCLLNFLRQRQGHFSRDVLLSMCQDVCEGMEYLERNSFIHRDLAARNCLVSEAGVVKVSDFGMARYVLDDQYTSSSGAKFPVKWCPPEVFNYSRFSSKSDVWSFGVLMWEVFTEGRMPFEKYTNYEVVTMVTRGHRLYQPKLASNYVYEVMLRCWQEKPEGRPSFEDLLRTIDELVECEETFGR

T1 sequence (O15111 whole entry): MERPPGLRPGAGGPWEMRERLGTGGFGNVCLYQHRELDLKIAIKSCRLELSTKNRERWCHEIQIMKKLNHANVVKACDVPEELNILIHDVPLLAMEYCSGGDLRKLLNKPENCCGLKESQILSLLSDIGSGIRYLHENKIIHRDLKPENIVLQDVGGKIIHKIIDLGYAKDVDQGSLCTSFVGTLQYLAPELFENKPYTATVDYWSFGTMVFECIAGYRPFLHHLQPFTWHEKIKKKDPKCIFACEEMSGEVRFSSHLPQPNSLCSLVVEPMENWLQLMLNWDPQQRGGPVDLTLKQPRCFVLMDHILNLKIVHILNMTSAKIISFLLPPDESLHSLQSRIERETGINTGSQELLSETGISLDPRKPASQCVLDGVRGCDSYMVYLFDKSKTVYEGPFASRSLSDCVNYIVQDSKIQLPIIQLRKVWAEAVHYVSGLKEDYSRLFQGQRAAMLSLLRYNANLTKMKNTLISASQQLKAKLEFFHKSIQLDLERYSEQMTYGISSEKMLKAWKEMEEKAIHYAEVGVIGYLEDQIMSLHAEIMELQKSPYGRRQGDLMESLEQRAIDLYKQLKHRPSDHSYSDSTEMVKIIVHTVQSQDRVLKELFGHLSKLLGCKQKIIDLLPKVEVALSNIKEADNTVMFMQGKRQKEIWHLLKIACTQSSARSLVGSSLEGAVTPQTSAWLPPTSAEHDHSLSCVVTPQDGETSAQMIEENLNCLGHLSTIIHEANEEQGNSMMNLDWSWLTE

O=C(O)c1cc(C(F)(F)F)ccc1NCCc1c[nH]c2cc(Br)ccc12 [Compound 5, 2-((2-(6-Bromo-1H-indol-3-yl)ethyl)amino)−5-(trifluoromethyl)benzoic Acid]
activity at 10 µM [1]: 83.2 ± 1.4% | activity at 10 µM [2]: 78.7 ± 0.8% | activity at 10 µM [3]: 101.2 ± 0.3% | activity at 10 µM [4]: 54.7 ± 2.7% | activity at 10 µM [5]: 96.8 ± 0.8% | activity at 10 µM [6]: 102 ± 3.7% | activity at 10 µM [7]: 87.7 ± 2.3% | activity at 10 µM [8]: 106.5 ± 0.1% | activity at 10 µM [9]: 91 ± 0.4% | activity at 10 µM [10]: 104.3 ± 0.7% | activity at 10 µM [11]: 89.9 ± 1.4% | activity at 10 µM [12]: 100.2 ± 0.6% | activity at 10 µM [13]: 101 ± 1.1% | activity at 10 µM [14]: 59.4 ± 2.8% | activity at 10 µM [15]: 70.2 ± 3.3% | activity at 10 µM [16]: 87.7 ± 0.4% | activity at 10 µM [17]: 101.8 ± 0.4% | activity at 10 µM [18]: 86.9 ± 0.2% | activity at 10 µM [19]: 86.3 ± 2.3% | activity at 10 µM [20]: 99.5 ± 0.1% | activity at 10 µM [21]: 81.9 ± 1.6% | activity at 10 µM [22]: 65.1 ± 1.6% | activity at 10 µM [23]: 98.2 ± 1.3% | activity at 10 µM [24]: 105 ± 1.5% | activity at 10 µM [25]: 95.8 ± 0.2% | activity at 10 µM [26]: 109.6 ± 0.2% | activity at 10 µM [27]: 94.7 ± 0.1% | activity at 10 µM [28]: 84.2 ± 0.1% | activity at 10 µM [29]: 75.6 ± 1.9% | activity at 10 µM [30]: 88.4 ± 1.1% | activity at 10 µM [31]: 96.1 ± 1.6% | activity at 10 µM [32]: 82.4 ± 1.3% | activity at 10 µM [33]: 86.9 ± 0.4% | activity at 10 µM [34]: 82.8 ± 2.2% | activity at 10 µM [35]: 106.8 ± 0.3% | activity at 10 µM [36]: 34.9 ± 0.5% | activity at 10 µM [37]: 101 ± 1.6%
